In US11014895B2, “Heterocyclic urea compound, and drug composition and application thereof” (CHINA PHARMACEUTICAL UNIVERSITY, priority 2017, dated 2021):

Assays:
[1] = biological target: IDO1 enzyme (Homo sapiens, UniProt P14902); assay: Determination of biochemical activity of IDO1 enzyme (absorbance at 320 nm); conditions: room temperature, 3 hours
Description: (1) Method for Determining Biochemical Activity of IDO1 Enzyme
Firstly, 15 μl of buffer solution of sodium hydrogen phosphate (PH:7-8), 5 μl of reaction buffer solution containing a proper amount of IDO-1 enzyme and heterocyclic urea compound prepared by the invention were added into wells of a microplate, mixed evenly, and reacted at room temperature for 3 hours; then a light absorption value at 320 nm wavelength was detected by using Envision Multilabel Reader of PE company, an inhibition rate of the heterocyclic urea compound on the enzyme reaction was calculated according to an absorption ratio, and an IC50 value of the heterocyclic urea compound was calculated through analysis by GraphPad.

[2] = biological target: T1, IDO1 enzyme in the Hela cell (Homo sapiens, UniProt P14902); assay: Cell activity: interferon γ-stimulated Hela cells, absorbance of supernatant at 480 nm; assay type: cell-based; conditions: interferon γ 100 ng/ml, 72 hours
T1 construct: endogenous in cells; host or cells: HeLa cells stimulated with interferon γ (100 ng/ml)
T1 sequence (P14902 whole entry): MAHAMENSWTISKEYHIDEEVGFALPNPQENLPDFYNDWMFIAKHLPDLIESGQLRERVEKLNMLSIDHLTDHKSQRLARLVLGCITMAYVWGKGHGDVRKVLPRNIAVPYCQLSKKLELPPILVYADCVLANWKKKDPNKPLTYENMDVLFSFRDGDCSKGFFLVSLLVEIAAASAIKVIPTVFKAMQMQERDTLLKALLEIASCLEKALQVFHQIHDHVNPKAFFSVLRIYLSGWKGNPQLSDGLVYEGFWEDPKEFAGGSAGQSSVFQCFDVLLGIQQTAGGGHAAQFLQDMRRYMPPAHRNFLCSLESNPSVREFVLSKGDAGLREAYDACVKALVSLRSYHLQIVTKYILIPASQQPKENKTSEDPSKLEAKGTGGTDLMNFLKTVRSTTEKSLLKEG
Description: (2) Method for Determining Cell Activity
Hela cells were cultured and passaged in a DMEM medium supplemented with antibiotics in a 37° C. CO2 incubator, inoculated into a 96-well plate for overnight culture, then 1 μl of heterocyclic urea compound with appropriate concentration was added to each well, and then 100 μl of interferon γ (final concentration was 100 ng/ml) was added. After the cells were continuously cultured for 72 hours, 70 μl of cell culture supernatant was added to a 96-well V-bottom plate, 5 μl of trichloroacetic acid (6.1 N) was added to each well, incubated at 50° C. for 30 min, then taken out and centrifuged at […] for 10 min. The above centrifuged supernatant was transferred to a 384-well microplate (20 μl/well), then 20 μl of 2% didimethylaminobenzaldehyde acetic acid solution was added to each well, shaken and mixed evenly, then photometric absorption was performed at 480 nm, and values were measured.

Sequence of IDO1 enzyme (P14902 whole entry): as above

Row | Structure (SMILES) | IC50 [1] [µM] | IC50 [2] [µM]
1 | O=C(Nc1cocc1/C(=N/O)Nc1ccc(F)c(Br)c1)Nc1c[nH]c2ccccc12 [Embodiment 74, (Z)-1-(4-(N-(3-bromo-4-fluorophenyl)-N′-hydroxyaminoiminomethyl)-furan-3-substituted)-3-(3-aminoindole)urea] | 0.1 to 1 | 0.1 to 1
2 | COc1ccc(NC(=O)Nc2nocc2/C(=N/O)Nc2ccc(F)c(Cl)c2)cc1 [Embodiment 97, (Z)-1-(4-(N-(3-chloro-4-fluorophenyl)-N′-hydroxyaminoiminomethyl)-isoxazole-3-substituted)-3-(4-methoxyphenyl)urea] | 0.1 to 1 | 0.1 to 1
3 | COc1ccc(NC(=O)Nc2nonc2/C(=N/O)Nc2ccc(F)c(Cl)c2)cc1 [Embodiment 22, (Z)-1-(4-(N-(3-chloro-4-fluorophenyl)-N′-hydroxyaminoiminomethyl)-1,2,5-oxadiazole-3-substituted)-3-(4-methoxyphenyl)urea] | 0.1 to 1 | 0.1 to 1
4 | COc1ccc(NC(=O)Nc2nonc2/C(=N/O)Nc2ccc(F)cc2)cc1 [Embodiment 54, (Z)-1-(4-(N-(4-fluorophenyl)-N′-hydroxyaminoiminomethyl)-1,2,5-oxadiazole-3-substituted)-3-(4-methoxyphenyl)urea] | 0.1 to 1 | 0.1 to 1
5 | O=C(Nc1ccccc1)Nc1nonc1/C(=N/O)Nc1ccc(F)c(Br)c1 [Embodiment 19, (Z)-1-(4-(N-(4-bromo-3-fluorophenyl)-N′-hydroxyaminoiminomethyl)-1,2,5-oxadiazole-3-substituted)-3-phenylurea] | 0.1 to 1 | 0.1 to 1
6 | O=C(Nc1nonc1/C(=N/O)Nc1ccc(F)c(Br)c1)NC1CCCCC1 [Embodiment 7, (Z)-1-(4-(N-(3-bromo-4-fluorophenyl)-N′-hydroxyaminoiminomethyl)-1,2,5-oxadiazole-3-substituted)-3-cyclohexylurea] | 0.1 to 1 | 0.1 to 1
7 | O=C(Nc1cccnc1)Nc1nocc1/C(=N/O)Nc1ccc(F)c(Br)c1 [Embodiment 96, (Z)-1-(4-(N-(3-bromo-4-fluorophenyl)-N′-hydroxyaminoiminomethyl)-isoxazole-3-substituted)-3-(3-aminopyridine)urea] | 0.1 to 1 | 0.1 to 1
8 | CS(=O)(=O)N1CCC(NC(=O)Nc2nonc2/C(=N/O)Nc2ccc(F)c(Br)c2)CC1 [Embodiment 12, (Z)-1-(4-(N-(3-bromo-4-fluorophenyl)-N′-hydroxyaminoiminomethyl)-1,2,5-oxadiazole-3-substituted)-3-(1(methsulfonyl)piperidine-4-substituted)urea] | 0.1 to 1 | 0.1 to 1
9 | NCCNC(=O)Nc1nonc1/C(=N/O)Nc1ccc(F)c(Br)c1 [Embodiment 16, (Z)-1-(4-(N-(3-bromo-4-fluorophenyl)-N′-hydroxyaminoiminomethyl)-1,2,5-oxadiazole-3-substituted)-3-(2-aminoethyl)urea] | 0.1 to 1 | 0.1 to 1
10 | O=C(Nc1ccccc1)Nc1nonc1/C(=N/O)Nc1ccc(F)cc1 [Embodiment 51, (Z)-1-(4-(N-(4-fluorophenyl)-N′-hydroxyaminoiminomethyl)-1,2,5-oxadiazole-3-substituted)-3-phenylurea] | 0.1 to 1 | 0.1 to 1
11 | O=C(Nc1nonc1/C(=N/O)Nc1ccc(F)c(Cl)c1)NC1CCCCC1 [Embodiment 25, (Z)-1-(4-(N-(3-chloro-4-fluorophenyl)-N′-hydroxyaminoiminomethyl)-1,2,5-oxadiazole-3-substituted)-3-cyclohexylurea] | 0.1 to 1 | 0.1 to 1
12 | O/N=C(\Nc1ccc(F)c(Br)c1)c1cocc1NC(=S)Nc1ccccc1 [Embodiment 137, (Z)-1-(4-(N-(3-bromo-4-fluorophenyl)-N′-hydroxyaminoiminomethyl)-furan-3-substituted)-3-phenylthiourea] | 0.1 to 1 | 0.1 to 1
13 | O=C(Nc1nonc1/C(=N/O)Nc1ccc(F)c(Br)c1)N1CCOCC1 [Embodiment 49, (Z)-1-(4-(N-(3-bromo-4-fluorophenyl)-N′-hydroxyaminoiminomethyl)-1,2,5-oxadiazole-3-substituted)morpholine-1-carbamide] | 0.1 to 1 | 0.1 to 1

Stronger by IC50 [1], values ahead:

Row | IC50 [1] [µM] | IC50 [2] [µM] | Structure (SMILES)
14 | < 0.001 | < 0.001 | O=C(Nc1nonc1/C(=N/O)Nc1ccc(F)c(Br)c1)NC1CCNCC1 [Embodiment 11, (Z)-1-(4-(N-(3-bromo-4-fluorophenyl)-N′-hydroxyaminoiminomethyl)-1,2,5-oxadiazole-3-substituted)-3-(piperidine-4-substituted)urea]
15 | < 0.001 | < 0.001 | O=C(Nc1conc1/C(=N/O)Nc1ccc(F)c(Br)c1)NC1CCC(O)CC1 (stereo not shown) [Embodiment 105]
16 | < 0.001 | < 0.001 | OCCNC(=S)Nc1nonc1/C(=N/O)Nc1ccc(F)c(Br)c1 [Embodiment 128, (Z)-1-(4-(N-(3-bromo-4-fluorophenyl)-N′-hydroxyaminoiminomethyl)-1,2,5-oxadiazole-3-substituted)-3-(2-hydroxyethyl)thiourea]
17 | < 0.001 | < 0.001 | NCCNC(=O)Nc1conc1/C(=N/O)Nc1ccc(F)c(Br)c1 [Embodiment 111]
18 | < 0.001 | < 0.001 | N=C(Nc1ccc(O)cc1)Nc1nonc1/C(=N/O)Nc1ccc(F)c(Br)c1 [Embodiment 141, (Z)-1-(4-(N-(3-bromo-4-fluorophenyl)-N′-hydroxyaminoiminomethyl)-1,2,5-oxadiazole-3-substituted)-3-(4-hydroxyphenyl)guanidine]
19 | < 0.001 | < 0.001 | N=C(Nc1ccc(N)cc1)Nc1nonc1/C(=N/O)Nc1ccc(F)c(Br)c1 [Embodiment 142, (Z)-1-(4-(N-(3-bromo-4-fluorophenyl)-N′-hydroxyaminoiminomethyl)-1,2,5-oxadiazole-3-substituted)-3-(4-aminophenyl)guanidine]
20 | < 0.001 | < 0.001 | O=C(Nc1nonc1/C(=N/O)Nc1ccc(F)c(Br)c1)NC1CCOCC1 [Embodiment 10, (Z)-1-(4-(N-(3-bromo-4-fluorophenyl)-N′-hydroxyaminoiminomethyl)-1,2,5-oxadiazole-3-substituted)-3-(tetrahydro-2H-pyran-4-substituted)urea]
21 | < 0.001 | < 0.001 | O/N=C(\Nc1ccc(F)c(Br)c1)c1nonc1NC(=S)NC1CCC(O)CC1 (stereo not shown) [Embodiment 123, (Z)-1-(4-(N-(3-bromo-4-fluorophenyl)-N′-hydroxyaminoiminomethyl)-1,2,5-oxadiazole-3-substituted)-3-(4-hydroxycyclohexyl)thiourea]
22 | < 0.001 | < 0.001 | N=C(Nc1nonc1/C(=N/O)Nc1ccc(F)c(Br)c1)NC1CCC(O)CC1 (stereo not shown) [Embodiment 147, (Z)-1-(4-(N-(3-bromo-4-fluorophenyl)-N′-hydroxyaminoiminomethyl)-1,2,5-oxadiazole-3-substituted)-3-(4-hydroxycyclohexyl)guanidine]
23 | < 0.001 | < 0.001 | COc1ccc(NC(=N)Nc2nonc2/C(=N/O)Nc2ccc(F)c(Br)c2)cc1 [Embodiment 139, (Z)-1-(4-(N-(3-bromo-4-fluorophenyl)-N′-hydroxyaminoiminomethyl)-1,2,5-oxadiazole-3-substituted)-3-(4-methoxyphenyl)guanidine]
